Common to all, as to experiment: two-electrode voltage clamp of Xenopus oocytes, steady-state current
What all share (settings): ND96 buffer pH 7.6, -60 mV; Fe(III) complex of DMA
Background: Two-electrode voltage clamp is typically applied to oocytes expressing channels or transporters.

The target in one assay is T1, ZmYS1 (Zea mays, UniProt Q9AY27).
T1 sequence (Q9AY27 1-682): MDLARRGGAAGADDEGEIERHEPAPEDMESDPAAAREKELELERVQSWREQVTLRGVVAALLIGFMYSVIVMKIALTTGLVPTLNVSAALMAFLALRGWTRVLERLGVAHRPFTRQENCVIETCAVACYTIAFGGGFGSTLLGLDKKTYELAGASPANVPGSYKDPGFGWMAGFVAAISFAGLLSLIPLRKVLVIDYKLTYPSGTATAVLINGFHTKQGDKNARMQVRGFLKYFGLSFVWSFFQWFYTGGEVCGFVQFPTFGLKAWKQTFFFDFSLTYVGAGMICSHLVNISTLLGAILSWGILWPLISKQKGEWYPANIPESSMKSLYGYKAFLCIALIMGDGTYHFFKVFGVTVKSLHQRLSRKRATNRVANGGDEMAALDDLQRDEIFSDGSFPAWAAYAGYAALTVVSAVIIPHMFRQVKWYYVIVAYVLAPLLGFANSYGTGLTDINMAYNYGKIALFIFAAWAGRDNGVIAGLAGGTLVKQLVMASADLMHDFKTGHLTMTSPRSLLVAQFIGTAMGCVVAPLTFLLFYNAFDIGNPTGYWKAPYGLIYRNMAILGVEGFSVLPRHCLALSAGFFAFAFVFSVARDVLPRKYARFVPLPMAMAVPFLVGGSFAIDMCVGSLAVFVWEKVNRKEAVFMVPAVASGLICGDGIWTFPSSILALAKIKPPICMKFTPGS
It counts as cell-based.

The test system of another assay is Hv-Zm-Hv. It counts as cell-based, Hordeum vulgare; Zea mays.
For a further assay, the target named is HvYS1 (Hordeum vulgare, UniProt Q2PGC4). It counts as cell-based.
A further assay has as its system Zm-Hv-Zm. It counts as cell-based, Zea mays; Hordeum vulgare.

The Km is the substrate concentration at which the rate is half of its maximum.

Chain of HvYS1 (Q2PGC4 1-678): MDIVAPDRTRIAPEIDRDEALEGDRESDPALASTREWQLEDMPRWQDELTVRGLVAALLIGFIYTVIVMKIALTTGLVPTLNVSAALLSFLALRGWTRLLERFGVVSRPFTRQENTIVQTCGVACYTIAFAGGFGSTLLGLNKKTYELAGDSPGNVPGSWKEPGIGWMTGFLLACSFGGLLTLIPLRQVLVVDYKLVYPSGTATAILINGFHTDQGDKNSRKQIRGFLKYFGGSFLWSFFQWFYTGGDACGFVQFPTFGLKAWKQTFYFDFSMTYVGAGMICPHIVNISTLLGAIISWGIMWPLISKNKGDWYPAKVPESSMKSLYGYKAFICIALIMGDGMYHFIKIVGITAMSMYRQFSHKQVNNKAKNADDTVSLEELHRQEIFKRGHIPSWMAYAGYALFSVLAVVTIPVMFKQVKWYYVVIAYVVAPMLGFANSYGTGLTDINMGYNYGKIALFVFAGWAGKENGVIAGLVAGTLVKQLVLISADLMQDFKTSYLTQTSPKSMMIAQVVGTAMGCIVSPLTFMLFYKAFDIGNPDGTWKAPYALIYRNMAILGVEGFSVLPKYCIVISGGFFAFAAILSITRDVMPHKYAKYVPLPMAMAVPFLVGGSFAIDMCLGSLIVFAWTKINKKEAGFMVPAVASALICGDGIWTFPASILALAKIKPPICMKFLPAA

As to `O=C([O-])[C@H](CCN1CC[C@H]1C(=O)[O-])NCC[C@H](O)C(=O)[O-].[Fe+3]` [Fe(III)-DMA], the Km on ZmYS1 worked out at 65.3 µM; in the assay on Hv-Zm-Hv it was 60.8 µM; on HvYS1, 71.8 µM; in the assay on Zm-Hv-Zm, 44.2 µM.

These data come from paper PMC5216903 (Febs Letters, 2016).
